Calls of active or inactive are those of the source. No cut-off for these calls is given here.
Legend:
HOP-62 = test: Antiproliferative activity against human HOP62 cells at 10 uM after 24 hrs by SRB assay; type: functional, cell-based
B16-F10 [1] = test: Antiproliferative activity against mouse B16F10 cells at 10 uM after 48 hrs by MTT assay relative to control; type: functional
U-251 = test: Antiproliferative activity against human U251 cells at 10 uM after 24 hrs by SRB assay; type: functional, cell-based
Caco-2 [2] = test: Antiproliferative activity against human Caco2 cells at 10 uM after 48 hrs by MTT assay relative to control; type: functional
MDA-MB-231 [3] = test: Antiproliferative activity against human MDA-MB-231 cells at 10 uM after 48 hrs by MTT assay relative to control; type: functional
B16-F10 [4] = test: Antiproliferative activity against mouse B16F10 cells assessed as higher lowest toxic concentration after 48 hrs by MTT assay relative to control; type: functional
Huh-7 [5] = test: Antiproliferative activity against human HuH7 cells at 10 uM after 48 hrs by MTT assay relative to control; type: functional
C6 [6] = test: Antiproliferative activity against rat C6 cells at 0.1 to 100 uM after 48 hrs by neutral red incorporation assay; type: functional, cell-based
UO-31 = test: Antiproliferative activity against human UO31 cells at 10 uM after 24 hrs by SRB assay; type: functional; conditions: UO-31, 24 h, read-out: GI
C6 [7] = test: Cytotoxicity against rat C6 cells at 10 uM after 1 hr by LDH Assay; type: functional, cell-based
MDA-MB-231 [8] = test: Antiproliferative activity against human MDA-MB-231 cells assessed as higher lowest toxic concentration after 48 hrs by MTT assay relative to control; type: functional
SF-268 = test: Antiproliferative activity against human SF268 cells at 10 uM after 24 hrs by SRB assay; type: functional, cell-based
MDA-MB-468 = test: Antiproliferative activity against human MDA-MB-468 cells at 10 uM after 24 hrs by SRB assay; type: functional, cell-based
Caco-2 [9] = test: Antiproliferative activity against human Caco2 cells assessed as higher lowest toxic concentration after 48 hrs by MTT assay relative to control; type: functional
C6 [10] = test: Antiproliferative activity against rat C6 cells assessed as higher lowest toxic concentration after 48 hrs by MTT assay relative to control; type: functional
NCI-H522 = test: Antiproliferative activity against human NCI-H522 cells at 10 uM after 24 hrs by SRB assay; type: functional, cell-based
MDA-MB-435 [11] = test: Antiproliferative activity against human MDA-MB-435 cells at 10 uM after 48 hrs by MTT assay relative to control; type: functional
A-431 [12] = test: Antiproliferative activity against human A431 cells at 10 uM after 48 hrs by MTT assay relative to control; type: functional
C6 [13] = test: Antiproliferative activity against rat C6 cells at 10 uM after 48 hrs by MTT assay relative to control; type: functional
DU-145 [14] = test: Antiproliferative activity against human DU145 cells at 10 uM after 48 hrs by MTT assay relative to control; type: functional
Huh-7 [15] = test: Antiproliferative activity against human HuH7 cells assessed as higher lowest toxic concentration after 48 hrs by MTT assay relative to control; type: functional
C6 [16] = test: Antiproliferative activity against rat C6 cells after 48 hrs by MTT assay; type: functional, cell-based; conditions: C6, 48 h
MDA-MB-435 [17] = test: Antiproliferative activity against human MDA-MB-435 cells assessed as higher lowest toxic concentration after 48 hrs by MTT assay relative to control; type: functional
SK-OV-3 = test: Antiproliferative activity against human SKOV3 cells at 10 uM after 24 hrs by SRB assay; type: functional, cell-based
LOX IMVI = test: Antiproliferative activity against human LOXIMVI cells at 10 uM after 24 hrs by SRB assay; type: functional; conditions: read-out: GI
A-431 [18] = test: Antiproliferative activity against human A431 cells assessed as higher lowest toxic concentration after 48 hrs by MTT assay relative to control; type: functional
DU-145 [19] = test: Antiproliferative activity against human DU145 cells assessed as higher lowest toxic concentration after 48 hrs by MTT assay relative to control; type: functional
Caco-2 [20] = test: Antiproliferative activity against human Caco2 cells after 48 hrs by MTT assay; type: functional, cell-based; conditions: Caco-2, 48 h
[21] = Cytotoxicity against mouse astrocytes assessed as decrease in cell viability at 1 to 100 uM after 48 hrs by Hoechst 33342 staining; type: cell-based; conditions: astrocyte
[22] = Cytotoxicity against mouse astrocytes assessed as decrease in cell viability at 1 to 100 uM after 48 hrs by neutral red incorporation assay; type: cell-based; conditions: astrocyte
MDA-MB-231 [23] = test: Antiproliferative activity against human MDA-MB-231 cells at 1 uM after 48 hrs by MTT assay relative to control; type: functional
Caco-2 [24] = test: Antiproliferative activity against human Caco2 cells at 1 uM after 48 hrs by MTT assay relative to control; type: functional
A-431 [25] = test: Antiproliferative activity against human A431 cells at 1 uM after 48 hrs by MTT assay relative to control; type: functional
C6 [26] = test: Cytotoxicity against rat C6 cells assessed as decrease in cell index at 100 uM after 1 hr; type: functional, cell-based
B16-F10 [27] = test: Antiproliferative activity against mouse B16F10 cells after 48 hrs by MTT assay; type: functional, cell-based; conditions: B16-F10, 48 h
DU-145 [28] = test: Antiproliferative activity against human DU145 cells after 48 hrs by MTT assay; type: functional, cell-based; conditions: DU-145, 48 h
C6 [29] = test: Antiproliferative activity against rat C6 cells at 1 uM after 48 hrs by MTT assay relative to control; type: functional
SNB-75 = test: Antiproliferative activity against human SNB75 cells at 10 uM after 24 hrs by SRB assay; type: functional, cell-based
C6 [30] = test: Cytotoxicity against rat C6 cells assessed as decrease in cell index at 5 uM after 3 hrs; type: functional, cell-based
Huh-7 [31] = test: Antiproliferative activity against human HuH7 cells at 1 uM after 48 hrs by MTT assay relative to control; type: functional
Hs-578T = test: Antiproliferative activity against human Hs 578T cells at 10 uM after 24 hrs by SRB assay; type: functional, cell-based
C6 [32] = test: Cytotoxicity against rat C6 cells assessed as decrease in cell index at 1 uM after 3 hrs; type: functional, cell-based
MDA-MB-435 [33] = test: Antiproliferative activity against human MDA-MB-435 cells at 1 uM after 48 hrs by MTT assay relative to control; type: functional
MDA-MB-435 [34] = test: Antiproliferative activity against human MDA-MB-435 cells after 48 hrs by MTT assay; type: functional, cell-based; conditions: MDA-MB-435, 48 h
C6 [35] = test: Cytotoxicity against rat C6 cells assessed as decrease in cell index at 10 uM after 3 hrs; type: functional, cell-based
SF-295 = test: Antiproliferative activity against human SF295 cells at 10 uM after 24 hrs by SRB assay; type: functional, cell-based
C6 [36] = test: Cytotoxicity against rat C6 cells assessed as decrease in cell index at 50 uM after 2 hrs; type: functional, cell-based
DU-145 [37] = test: Antiproliferative activity against human DU145 cells at 1 uM after 48 hrs by MTT assay relative to control; type: functional, cell-based
Huh-7 [38] = test: Antiproliferative activity against human HuH7 cells after 48 hrs by MTT assay; type: functional, cell-based; conditions: Huh-7, 48 h
C6 [39] = test: Cytotoxicity against rat C6 cells assessed as decrease in cell index at 25 uM after 3 hrs; type: functional, cell-based
B16-F10 [40] = test: Antiproliferative activity against mouse B16F10 cells at 1 uM after 48 hrs by MTT assay relative to control; type: functional
A-431 [41] = test: Antiproliferative activity against human A431 cells after 48 hrs by MTT assay; type: functional, cell-based; conditions: A-431, 48 h
[42] = Cytotoxicity against mouse astrocytes assessed as decrease in cell viability at 1 to 100 uM after 48 hrs by propidium iodide incorporation assay; type: cell-based; conditions: astrocyte

## O=[P@@]1(c2ccccc2)O[C@H](COCc2ccccc2)[C@@H](OCc2ccccc2)[C@H](OCc2ccccc2)[C@@H]1O
HOP-62
  growth inhibition (GI): Active
B16-F10 [1]
  Activity: inactive
U-251
  growth inhibition (GI): Active
Caco-2 [2]
  Activity: 15%
MDA-MB-231 [3]
  Activity: 18%
B16-F10 [4]
  Activity: 25 µM
Huh-7 [5]
  Activity: 55%
C6 [6]
  Activity: Active
UO-31
  inhibition of growth at 10 µM: 50%
C6 [7]
  Activity: Active
MDA-MB-231 [8]
  Activity: 5 µM
SF-268
  growth inhibition (GI): Active
MDA-MB-468
  growth inhibition (GI): Active
Caco-2 [9]
  Activity: 5 µM
C6 [10]
  Activity: 0.1 µM
NCI-H522
  growth inhibition (GI): Active
MDA-MB-435 [11]
  Activity: 43%
A-431 [12]
  Activity: 33%
C6 [13]
  Activity: 31%
DU-145 [14]
  Activity: 14%
Huh-7 [15]
  Activity: 0.1 µM
C6 [16]
  EC50: 23.8 µM
MDA-MB-435 [17]
  Activity: 0.1 µM
SK-OV-3
  growth inhibition (GI): Active
LOX IMVI
  inhibition of growth at 10 µM: 45%
A-431 [18]
  Activity: 5 µM
DU-145 [19]
  Activity: 1 µM

## O=[P@@]1(c2ccccc2)O[C@H](COCc2ccccc2)[C@@H](OCc2ccccc2)[C@H](OCc2ccccc2)[C@H]1O
Caco-2 [20]
  EC50: 57 µM
B16-F10 [1]
  Activity: 73%
[21]
  Activity: Non-toxic
Caco-2 [2]
  Activity: 43%
[22]
  Activity: Non-toxic
MDA-MB-231 [23]
  Activity: 17%
Caco-2 [24]
  Activity: 10%
MDA-MB-231 [3]
  Activity: 30%
A-431 [25]
  Activity: 18%
B16-F10 [4]
  Activity: 0.5 µM
Huh-7 [5]
  Activity: 22%
C6 [26]
  Activity: Active
C6 [6]
  Activity: Active
B16-F10 [27]
  EC50: 4.9 µM
DU-145 [28]
  EC50: 65 µM
C6 [29]
  Activity: 63%
C6 [7]
  Activity: Active
SNB-75
  growth inhibition (GI): Active
C6 [30]
  Activity: Active
Huh-7 [31]
  Activity: 16%
Hs-578T
  growth inhibition (GI): Active
MDA-MB-231 [8]
  Activity: 0.1 µM
C6 [32]
  Activity: inactive
MDA-MB-435 [33]
  Activity: 22%
MDA-MB-435 [34]
  EC50: 13.9 µM
C6 [35]
  Activity: inactive
Caco-2 [9]
  Activity: 0.5 µM
SF-295
  growth inhibition (GI): Active
C6 [10]
  Activity: 0.001 µM
MDA-MB-435 [11]
  Activity: 42%
A-431 [12]
  Activity: 32%
C6 [13]
  Activity: 82%
C6 [36]
  Activity: Active
DU-145 [14]
  Activity: 40%
Huh-7 [15]
  Activity: 0.1 µM
C6 [16]
  EC50: 0.52 µM
MDA-MB-435 [17]
  Activity: 0.001 µM
DU-145 [37]
  Activity: inactive
Huh-7 [38]
  EC50: 30 µM
C6 [39]
  Activity: Active
B16-F10 [40]
  Activity: 25%
A-431 [41]
  EC50: 14.5 µM
[42]
  Activity: Non-toxic
A-431 [18]
  Activity: 0.1 µM
DU-145 [19]
  Activity: 5 µM

Source: ChEMBL document CHEMBL2029220, “Oxaphosphinanes: new therapeutic perspectives for glioblastoma” (J Med Chem, 2012)
